# Entries after “also recorded” stand apart in the source; their conditions may differ. Read-outs that look alike come from different tables or passages of the source.
# Legend:
# [1] = tested on: OVCAR-3 cells (ovarian cancer); experiment: Cell proliferation assay (MTS), OVCAR-3; assay type: cell-based; conditions: for IC50: read-out: IC50 (μM) Ovarian cancer OVCAR-3; for antiproliferative activity relative to RM-133, OVCAR-3: fold of RM-133 activity (>1 = more active)
# Description: (§1) The different aminosteroids were dissolved in methanol (50 mM).
# [2] = tested on: Human pancreas cancer cells (PANC-1); experiment: Cell proliferation assay (MTS), PANC-1; assay type: cell-based; conditions: for IC50: read-out: IC50 (μM) Pancreatic cancer PANC-1; for antiproliferative activity relative to RM-133, PANC-1: fold of RM-133 activity (>1 = more active)
# Description: as §1
# [3] = tested on: HL-60 (acute promyelocytic leukemia) cells; experiment: Cell proliferation assay (MTS), HL-60; assay type: cell-based; conditions: for IC50: read-out: IC50 (μM) HL-60 (leukemia); for antiproliferative activity relative to RM-133, HL-60: fold of RM-133 activity (>1 = more active)
# Description: as §1
# [4] = tested on: primary ovary normal cells; experiment: cells; assay type: cell-based, human; conditions: for Selectivity Index Ovary: IC50 normal cells/IC50 cancer cells (primary ovary / OVCAR-3)
# Description: as §1
# [5] = tested on: renal proximal tubule epithelial cells (RPTEC); experiment: Toxicity on normal cells (MTS), RPTEC; assay type: cell-based, human
# Description: as §1
# [6] = tested on: primary pancreas normal cells; experiment: Toxicity on normal cells (MTS), primary pancreas; assay type: cell-based, human; conditions: for Selectivity Index Pancreas: IC50 normal cells/IC50 cancer cells (primary pancreas / PANC-1); for IC50: human normal cells
# Description: as §1
# [7] = human, 1 h, 10 μM, pH 7.4
# Description: (§2) Assays were performed at 37° C. for 1 h, with or without 10 mM NADPH in the presence of 40 μg of human liver microsome from Corning (Melrose, Mass., USA) and 10 μM of aminosteroid substrate in a final 100 μL volume of 50 mM Tris buffer (pH 7.4) supplemented with 10 mM MgCl2. Assays were ended by adding 100 μL of MeOH followed by centrifugation at 13,000 g for 10 min to obtain a pellet of proteins. The supernatant of 2 assays was pooled and submitted to HPLC-MS analysis (Shimadzu LCMS-2020 APCI, Alltima HP C18 (250 mm×4.6 mm, 5 μm) column, MeOH:H2O gradient). Remaining substrate (expressed in %) was calculated by dividing the area under the curve of the substrate for the assays without NADPH by the area under the curve of the substrate for the assays with NADPH and multiplied by 100. Values represent the average of 2 independent experiments.
# [8] = tested on: primary pancreas, primary ovary and renal proximal tubule epithelial cells (RPTEC); experiment: Toxicity on the normal cell types tested; conditions: higher concentration tested 50 μM
# Description: Human primary epithelial pancreas and ovary cells were obtained from Cedarlane (Chicago, Ill., USA) and were cultured in the manufacturer recommended medium. Human renal proximal tubule epithelial cells (RPTEC) were obtained from Lonza (Mississauga, ON, Canada) and were maintained in DMEM-F12 supplemented as previously reported [4]. The cell lines were all maintained under a 5% CO2 humidified atmosphere at 37° C. and the culture medium was changed every 2 to 3 days and the cells were split once a week to maintain cell propagation.
# The cell proliferation assay was performed using 3-(4,5-dimethylthiazol-2-yl)-5-(3-carboxymethoxyphenyl)2-(4-sulfophenyl)-2H-tetrazolium (MTS) (Cell Titer 96 Aqueous, Promega, Nepean, ON, Canada) as previously described [3, 4, 5]. Briefly, cells were plated in triplicate in 96-well plates (1×10^4 cells/well) in appropriate culture medium (total of 90 μL). Before each treatment, the cells were incubated at 37° C. in a 5% CO2 humidified atmosphere for 24 h. The different aminosteroids were dissolved in methanol (50 mM). The stock solutions were diluted at multiple concentrations with culture media in order to obtain the desired final concentration followed by the addition of 10 μL to each well, and the mixture incubated for 3 days. Following treatment, MTS (10 μL) was added to each well and the mixture was incubated for 4 h. […] Selectivity was calculated by dividing the IC50 obtained for a specific primary cell by the IC50 for the related cancer cell line.
# [9] = Metabolic stability assay, human liver microsomes; conditions: 1 h; for increased metabolic stability relative to RM-133: human hepatic microsomes
# Description: as §2
# [10] = tested on: LAPC-4 (prostate cancer) cells; experiment: Cell proliferation assay (MTS), LAPC-4; assay type: cell-based; conditions: read-out: IC50 (μM) Prostate cancer LAPC-4
# Description: as §1
# [11] = tested on: PANC-1, BxPC-3, Hs766, OVCAR-3, Caov3, SKOV3, MCF-7, T-47D and LAPC-4 cell lines; experiment: Cytotoxic activity screening at 5 and 1 μM on cancer cell lines; conditions: independently of the cancer cell line tested, result in words
# Description: The cell proliferation assay was performed using 3-(4,5-dimethylthiazol-2-yl)-5-(3-carboxymethoxyphenyl)2-(4-sulfophenyl)-2H-tetrazolium (MTS) (Cell Titer 96 Aqueous, Promega, Nepean, ON, Canada) as previously described [3, 4, 5]. Briefly, cells were plated in triplicate in 96-well plates (1×10^4 cells/well) in appropriate culture medium (total of 90 μL). Before each treatment, the cells were incubated at 37° C. in a 5% CO2 humidified atmosphere for 24 h. The different aminosteroids were dissolved in methanol (50 mM). The stock solutions were diluted at multiple concentrations with culture media in order to obtain the desired final concentration followed by the addition of 10 μL to each well, and the mixture incubated for 3 days. Following treatment, MTS (10 μL) was added to each well and the mixture was incubated for 4 h.
# [12] = tested on: PC-3 (prostate cancer) cells; experiment: Cell proliferation assay (MTS), PC-3; assay type: cell-based; conditions: 72 h; 3 days treatment, MTS; read-out: IC50 (μM) Prostate cancer PC-3
# Description: as §1
# [13] = tested on: LNCaP (prostate cancer) cells; experiment: Cell proliferation assay (MTS), LNCaP; assay type: cell-based; conditions: Homo sapiens, 72 h, 3 days treatment, MTS, read-out: IC50 (μM) Prostate cancer LNCaP
# Description: as §1
# [14] = tested on: MCF-7 breast cancer cells; experiment: Cell proliferation assay (MTS), MCF-7; assay type: cell-based, human; conditions: Homo sapiens, MCF7, 72 h, 3 days treatment
# Description: as §1
# [15] = tested on: T-47D breast cancer cell line; experiment: Cell proliferation assay (MTS), T-47D; assay type: cell-based; conditions: Homo sapiens, T47D, 72 h; 3 days treatment, MTS
# Description: as §1
# [16] = Homo sapiens, OVCAR-3, 72 h, 3 days treatment, MTS
# [17] = Homo sapiens, HL-60, 72 h, 3 days treatment, MTS
# [18] = human normal cells, read-out: IC50 (μM) Primary Ovary (normal cells)
# [19] = normal (kidney) cells, read-out: IC50 (μM) RPTEC (normal cells)
compound,measurement,setting,value
"C#C[C@@]1(O)CC[C@H]2[C@@H]3CC[C@H]4C[C@H](OC(=O)N(C)C)[C@@H](N5CCN(C(=O)[C@@H]6CCCN6C(=O)c6ccc7ccccc7n6)CC5)C[C@]4(C)[C@H]3CC[C@@]21C [3 (3-carbamate), (2β,3α,5α,17α)-17-hydroxy-2-{4-[1-(quinolin-2-ylcarbonyl)-L-prolyl]piperazin-1-yl}pregn-20-yn-3-yl dimethylcarbamate]",IC50,[1]; [16],20 µM
same,"antiproliferative activity relative to RM-133, OVCAR-3",[1],0.3 fold
same,IC50,"[2]; Homo sapiens, PANC-1, 72 h, 3 days treatment, MTS",9.99 µM
same,"antiproliferative activity relative to RM-133, PANC-1",[2],0.7 fold
same,IC50,[3]; [17],7.95 µM
same,"antiproliferative activity relative to RM-133, HL-60",[3],0.9 fold
same,Selectivity Index Ovary,[4],>2.5
same,IC50,[4]; [18],> 50 µM
same,IC50,"[5]; Homo sapiens, RPTEC, normal (kidney) cells, read-out: IC50 (μM) RPTEC (normal cells)",24.2 µM
same,Selectivity Index Pancreas,[6],>5.0
same,IC50,[6],> 50 µM
same,increased metabolic stability relative to RM-133,[7]; microsomes,5.9 fold
same,toxicity on the normal cell types tested,[8],very low toxicity; also recorded: no cytotoxicity was observed
"C#C[C@@]1(O)CC[C@H]2[C@@H]3CC[C@H]4C[C@H](OC(C)=O)[C@H](N5CCN(C(=O)[C@@H]6CCCN6C(=O)c6ccc7ccccc7n6)CC5)C[C@]4(C)[C@H]3CC[C@@]21C [4 (3-ester), (2α,3α,5α,17α)-17-hydroxy-2-{4-[1-(quinolin-2-ylcarbonyl)-L-prolyl]piperazin-1-yl}pregn-20-yn-3-yl acetate]",IC50,"[1]; 3 days treatment, MTS",3.83 µM
same,"antiproliferative activity relative to RM-133, OVCAR-3",[1],1.4 fold
same,IC50,"[2]; 3 days treatment, MTS",6.24 µM
same,"antiproliferative activity relative to RM-133, PANC-1",[2],1.1 fold
same,IC50,"[3]; 3 days treatment, MTS",6.44 µM
same,"antiproliferative activity relative to RM-133, HL-60",[3],1.1 fold
same,Selectivity Index Ovary,[4],11.0
same,IC50,[4]; [18],42 µM
same,IC50,[5]; [19],32.1 µM
same,Selectivity Index Pancreas,[6],4.8
same,IC50,[6],30.1 µM
same,toxicity on the normal cell types tested,[8],very low toxicity
same,increased metabolic stability relative to RM-133,[9],3.1 fold
"C#C[C@]1(OC(C)=O)CC[C@H]2[C@@H]3CC[C@H]4C[C@H](OC(C)=O)[C@@H](N5CCN(C(=O)[C@@H]6CCCN6C(=O)c6ccc7ccccc7n6)CC5)C[C@]4(C)[C@H]3CC[C@@]21C [5 (3,17-diester), (2β,3α,5α,17α)-2-{4-[1-(quinolin-2-ylcarbonyl)-L-prolyl]piperazin-1-yl}pregn-20-yne-3,17-diyl diacetate]",IC50,"[1]; 3 days treatment, MTS",13.1 µM
same,"antiproliferative activity relative to RM-133, OVCAR-3",[1],0.4 fold
same,IC50,"[2]; 3 days treatment, MTS",25 µM
same,"antiproliferative activity relative to RM-133, PANC-1",[2],0.3 fold
same,IC50,"[3]; 3 days treatment, MTS",6.44 µM
same,"antiproliferative activity relative to RM-133, HL-60",[3],activity similar to RM-133
same,IC50,[4]; [18],25.4 µM
same,IC50,[5]; [19],45.5 µM
same,IC50,[6],16.6 µM
same,toxicity on the normal cell types tested,[8],increased toxicity relative to the mono-ester derivative 4
same,increased metabolic stability relative to RM-133,[9],3.5 fold
"C#C[C@@]1(O)CC[C@H]2[C@@H]3CCc4cc(OC(=O)N(C)C)c(N5CCN(C(=O)[C@@H]6CCCN6C(=O)c6ccc7ccccc7n6)CC5)cc4[C@H]3CC[C@@]21C [Compound 1, (17β)-17-ethynyl-17-hydroxy-2-{4-[1-(quinolin-2-ylcarbonyl)-L-prolyl]piperazin-1-yl}estra-1,3,5(10)-trien-3-yl dimethylcarbamate]",IC50,"[10]; Homo sapiens, LAPC4, 72 h",1.3 µM
same,IC50,"[1]; Homo sapiens, OVCAR-3, 72 h",6.4 µM
same,IC50,"[2]; Homo sapiens, PANC-1, 72 h",9.6 µM
same,IC50,"[3]; Homo sapiens, HL-60, 72 h",4.3 µM
same,IC50,"[4]; Homo sapiens, read-out: IC50 (μM) Normal Cells Ovary",≥ 50 µM
same,IC50,"[5]; Homo sapiens, RPTEC, read-out: IC50 (μM) Normal Cells Kidney",≥ 50 µM
same,cytotoxic activity in screening (cell survival),[11],only slight differences in their respective levels of activity
"C#C[C@@]1(O)CC[C@H]2[C@@H]3CCc4cc(OC(=O)N(CC)CC)c(N5CCN(C(=O)[C@@H]6CCCN6C(=O)c6ccc7ccccc7n6)CC5)cc4[C@H]3CC[C@@]21C [Compound 2, (17β)-17-ethynyl-17-hydroxy-2-{4-[1-(quinolin-2-ylcarbonyl)-L-prolyl]piperazin-1-yl}estra-1,3,5(10)-trien-3-yl diethylcarbamate]",cytotoxic activity in screening (cell survival),[11],marked weaker cytotoxic activity; also recorded: significant losses of activity
"C#C[C@@]1(O)CC[C@H]2[C@@H]3CCc4cc(OC(C)=O)c(N5CCN(C(=O)[C@@H]6CCCN6C(=O)c6ccc7ccccc7n6)CC5)cc4[C@H]3CC[C@@]21C [Compound 3, (17β)-17-ethynyl-17-hydroxy-2-{4-[1-(quinolin-2-ylcarbonyl)-L-prolyl]piperazin-1-yl}estra-1,3,5(10)-trien-3-yl acetate]",IC50,[12],1.4 ± 0.3 µM
same,IC50,"[10]; 3 days treatment, MTS",0.6 µM
same,IC50,"[10]; Homo sapiens, LAPC4, 72 h, 3 days treatment, MTS",0.5 ± 0.4 µM
same,IC50,[13],0.8 ± 0.3 µM
same,IC50,[14],1.4 ± 0.1 µM
same,IC50,[15],0.4 ± 0.2 µM
same,IC50,"[1]; 3 days treatment, MTS",3.4 µM
same,IC50,[1]; [16],3.9 ± 0.4 µM
same,IC50,[3]; [17],4.3 µM
same,IC50,"[4]; relative toxicity on human normal cells, read-out: IC50 (μM) Normal Cells Ovary",≥ 50 µM
same,IC50,"[5]; Homo sapiens, RPTEC, relative toxicity on human normal cells, read-out: IC50 (μM) Normal Cells Kidney",≥ 50 µM
same,phenolic metabolite RM-581-OH (stability of potential prodrugs to hydrolysis),[7],no trace of the phenolic metabolite RM-581-OH could be observed
same,toxicity on the normal cell types tested,[8],did not trigger any loss of cell viability even at concentrations as high as 50 μM
"C#Cc1cc2c(cc1N1CCN(C(=O)[C@@H]3CCCN3C(=O)c3ccc4ccccc4n3)CC1)[C@H]1CC[C@@]3(C)[C@@H](CC[C@@]3(O)C#C)[C@@H]1CC2 [Compound 17a, {4-[(17β)-3,17-diethynyl-17-hydroxyestra-1,3,5(10)-trien-2-yl]piperazin-1-yl}[(2S)-1-(quinolin-2-ylcarbonyl)pyrrolidin-2-yl]methanone]",cytotoxic activity in screening (cell survival),[11],only slight differences in their respective levels of activity
"C#C[C@@]1(O)CC[C@H]2[C@@H]3CCc4cc(C(C)O)c(N5CCN(C(=O)[C@@H]6CCCN6C(=O)c6ccc7ccccc7n6)CC5)cc4[C@H]3CC[C@@]21C (stereo partly drawn) [Compound 18, {4-[(17β)-17-ethynyl-17-hydroxy-3-(1-hydroxyethyl)estra-1,35(10)-trien-2-yl]piperazin-1-yl}[(2S)-1-(quinolin-2-ylcarbonyl)pyrrolidin-2-yl]methanone]",metabolic stability (% of remaining compound),"[9]; 10 μM, 40 μg human liver microsomes, result in words",slightly lower values
same,cytotoxic activity in screening (cell survival),[11],only slight differences in their respective levels of activity

# — patent publication US11174282B2, “Aminosteroid derivatives and process for producing same” (UNIVERSITÉ LAVAL, priority 2016, dated 2021)
